How the values were obtained:
panel of 442 kinases [1] = molecular target: T1, panel of 442 kinases (Homo sapiens, UniProt P0C264); format: binding; conditions: kinase SgK110; compound concentration 10 µM
T1 construct: purchased KINOMEscan
T1 sequence (P0C264 1-359): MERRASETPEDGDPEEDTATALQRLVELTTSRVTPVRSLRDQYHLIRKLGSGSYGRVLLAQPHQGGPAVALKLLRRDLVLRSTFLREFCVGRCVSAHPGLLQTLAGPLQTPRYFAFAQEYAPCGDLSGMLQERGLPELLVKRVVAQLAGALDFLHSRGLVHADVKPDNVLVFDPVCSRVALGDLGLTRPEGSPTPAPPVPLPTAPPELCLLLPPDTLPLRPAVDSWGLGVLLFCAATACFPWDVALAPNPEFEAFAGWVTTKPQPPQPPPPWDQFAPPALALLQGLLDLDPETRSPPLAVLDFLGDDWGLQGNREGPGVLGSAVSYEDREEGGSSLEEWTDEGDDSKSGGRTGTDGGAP
Text: (§1) We assessed the selectivity of members of this scaffold using the KINOMEscan methodology across a near comprehensive panel of 442 kinases [[18,27]].

panel of 442 kinases [2] = molecular target: T2, panel of 442 kinases (Homo sapiens, UniProt Q99683); format: binding; conditions: Compound Concentration 10 µM
T2 construct: purchased KINOMEscan
T2 sequence (Q99683 1-1374): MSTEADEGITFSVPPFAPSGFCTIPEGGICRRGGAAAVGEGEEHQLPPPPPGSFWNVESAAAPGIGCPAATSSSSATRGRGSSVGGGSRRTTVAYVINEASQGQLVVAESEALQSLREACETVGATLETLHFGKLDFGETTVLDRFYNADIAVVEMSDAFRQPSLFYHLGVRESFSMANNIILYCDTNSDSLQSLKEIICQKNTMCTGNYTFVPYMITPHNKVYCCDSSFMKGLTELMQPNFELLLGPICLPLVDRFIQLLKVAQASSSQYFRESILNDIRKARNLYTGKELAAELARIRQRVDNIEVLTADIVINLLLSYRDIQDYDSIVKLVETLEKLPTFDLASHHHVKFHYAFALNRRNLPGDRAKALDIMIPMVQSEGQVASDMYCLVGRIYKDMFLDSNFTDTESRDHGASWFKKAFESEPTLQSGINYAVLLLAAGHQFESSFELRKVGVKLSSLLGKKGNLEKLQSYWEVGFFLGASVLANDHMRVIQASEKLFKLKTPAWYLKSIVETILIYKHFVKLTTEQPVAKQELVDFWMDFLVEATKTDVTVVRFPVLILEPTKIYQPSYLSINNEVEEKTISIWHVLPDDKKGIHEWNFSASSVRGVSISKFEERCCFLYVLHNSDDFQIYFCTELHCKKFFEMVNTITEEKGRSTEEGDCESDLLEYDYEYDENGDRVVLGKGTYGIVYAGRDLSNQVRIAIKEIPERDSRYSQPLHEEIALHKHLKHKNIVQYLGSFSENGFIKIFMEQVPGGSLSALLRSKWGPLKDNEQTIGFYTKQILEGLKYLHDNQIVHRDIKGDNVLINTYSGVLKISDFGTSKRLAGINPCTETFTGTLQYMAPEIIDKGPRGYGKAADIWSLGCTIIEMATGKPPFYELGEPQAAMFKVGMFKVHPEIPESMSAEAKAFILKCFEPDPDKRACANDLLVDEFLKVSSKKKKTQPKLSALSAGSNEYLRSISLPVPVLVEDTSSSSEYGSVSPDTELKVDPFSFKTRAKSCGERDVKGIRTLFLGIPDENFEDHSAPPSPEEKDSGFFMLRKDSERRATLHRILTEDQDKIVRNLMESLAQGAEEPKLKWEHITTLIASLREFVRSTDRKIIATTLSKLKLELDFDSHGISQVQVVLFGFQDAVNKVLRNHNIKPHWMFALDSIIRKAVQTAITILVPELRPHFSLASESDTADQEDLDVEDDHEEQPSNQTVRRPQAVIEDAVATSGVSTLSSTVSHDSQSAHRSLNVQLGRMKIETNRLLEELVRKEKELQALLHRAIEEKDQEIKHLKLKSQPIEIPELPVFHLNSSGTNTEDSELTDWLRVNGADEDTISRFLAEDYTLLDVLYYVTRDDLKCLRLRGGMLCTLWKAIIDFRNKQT
Text: as §1

Row | SMILES | % Ctrl, SgK110 (panel of 442 kinases [1]) | KINOMEscan: ASK1 (panel of 442 kinases [2])
1 | CCOc1cc(C(=O)N2CCC(N3CCN(C)CC3)CC2)ccc1Nc1ncc2c(n1)N(C1CCCC1)c1ccccc1C(=O)N2C [Compound 26] | 81 % Ctrl | 100
2 | COc1cc(C(=O)N2CCC(N3CCN(C)CC3)CC2)ccc1Nc1ncc2c(n1)N(C1CCCC1)c1ccccc1C(=O)N2C [Compound 25, 11-cyclopentyl-2-((2-methoxy-4-(4-(4-methylpiperazin-1-yl)piperidine-1-carbonyl)phenyl)amino)-5-methyl-5H-benzo[e]pyrimido[5,4-b][1,4]diazepin-6(11H)-one] | 43 % Ctrl | 100
3 | COc1cc(C(=O)N2CCC(N3CCN(C)CC3)CC2)ccc1Nc1ncc2c(n1)N(C)c1ccccc1C(=O)N2C [15 (LRRK2-IN-1)] | 62 % Ctrl | 100
